Literature values in patent publication US20250313903A1, “NEOANTIGEN IMMUNOTHERAPY” (Gradalis, Inc., priority 2023, published 2025).
Where two headings read alike, the source gives them in different places.

What was measured:
[1] = tested on: previously treated, PD-L1 positive, advanced NSCLC; conditions: in vivo
[2] = tested on: advanced renal cell cancer; conditions: in vivo
[3] = tested on: Stage IIIb/IV newly diagnosed ovarian cancer; conditions: follow up at 74 months
[4] = tested on: newly diagnosed advanced high-grade ovarian cancer
[5] = tested on: metastatic NSCLC, 2nd line post platinum-based chemotherapy; conditions: regardless of PD-L1 expression or histology
[6] = tested on: extensive stage SCLC, 1st line setting; conditions: atezolizumab added to carboplatin and etoposide, vs. placebo
[7] = tested on: triple-negative breast cancer; conditions: PD-L1 (TPS) ≥1% cut-off
[8] = tested on: newly diagnosed stage III/IV ovarian cancer
[9] = tested on: chemo-refractory, metastatic Merkel cell carcinoma
[10] = tested on: advanced urothelial carcinoma, 2nd line setting; conditions: in vivo
[11] = tested on: advanced renal cell carcinoma; conditions: Avelumab + Axitinib vs. sunitinib
[12] = tested on: stage III-IV ovarian cancer
[13] = tested on: recurrent or metastatic cervical cancer after platinum-based chemotherapy; conditions: vs. investigator-choice chemotherapy
[14] = tested on: locally advanced, metastatic squamous cell carcinoma
[15] = tested on: primary advanced or recurrent dMMR or MSI-H endometrial cancer; conditions: dostarlimab-gxly vs. placebo + carboplatin-paclitaxel
[16] = tested on: advanced/metastatic urothelial carcinoma, platinum-refractory
metastatic melanoma = conditions: previously untreated, wild-type BRAF (CheckMate-067 and CheckMate-069)
[17] = tested on: metastatic melanoma progressed after anti-CTLA-4 therapy; conditions: in vivo
[18] = tested on: lymph-node positive or metastatic melanoma after complete resection; conditions: adjuvant
[19] = tested on: non-small cell lung cancer (NSCLC); conditions: progressed after platinum-doublet chemotherapy
[20] = tested on: small-cell lung cancer (SCLC)
[21] = tested on: relapsed/refractory metastatic squamous cell cancer of head and neck; conditions: second-line
[22] = tested on: persistent/recurrent cervical cancer; conditions: in vivo
[23] = tested on: persistent/recurrent cervical cancer; conditions: in vivo; remark: listed apart in the source
MSI-H/dMMR tumors = conditions: in vivo
[24] = tested on: advanced metastatic non-small cell lung cancer (NSCLC); conditions: one patient, EGFR exon 19 deletion; ongoing greater than 1 year
[25] = tested on: unresectable or metastatic, untreated melanoma; conditions: for 24-months OS / 24-months PFS: PD-L1 ≥1%; for 1-year OS / PFS (1-year PFS in Table 3): in vivo
[26] = tested on: untreated, PD-L1 ≥50 advanced NSCLC; conditions: vs. chemotherapy
[27] = tested on: untreated, non-squamous NSCLC without sensitizing mutations; conditions: pembrolizumab plus chemotherapy vs. chemotherapy
NSCLC = conditions: irrespective of PD-L1 status
[28] = tested on: recurrent or metastatic head and neck squamous cell cancer; conditions: first-line; monotherapy for CPS ≥1% or with chemotherapy
[29] = tested on: refractory classical Hodgkin's lymphoma; conditions: in vivo
[30] = tested on: refractory/relapse primary mediastinal large B-cell lymphoma; conditions: in vivo
[31] = tested on: unresectable/metastatic urothelial cancer; 2nd line; conditions: for median OS: vs. chemotherapy
[32] = tested on: unresectable/metastatic urothelial cancer, cisplatin-ineligible; conditions: 1st line, CPS ≥10
[33] = tested on: MSI-H, dMMR or TMB-H solid tumors
[34] = tested on: persistent/recurrent or metastatic cervical cancer with PD-L1 CPS ≥1; conditions: pembrolizumab vs. placebo + paclitaxel/platinum +/- bevacizumab
[35] = tested on: advanced non-colorectal dMMR tumors; conditions: in vivo
[36] = in vivo
[37] = tested on: unresectable, previously treated, late-stage melanoma; conditions: 3 mg/kg every 3 weeks, alone or with gp100
[38] = tested on: untreated unresectable/metastatic melanoma; conditions: combination vs. ipilimumab alone

For `CC(=O)O[C@@]12CO[C@@H]1C[C@H](O)[C@@]1(C)C(=O)[C@H](O)C3=C(C)[C@@H](OC(=O)[C@H](O)[C@@H](NC(=O)OC(C)(C)C)c4ccccc4)C[C@@](O)([C@@H](OC(=O)c4ccccc4)[C@H]21)C3(C)C` [docetaxel], the OS [1] is listed as 8.5 months.
For `CO[C@H]1C[C@@H]2CC[C@@H](C)[C@@](O)(O2)C(=O)C(=O)N2CCCC[C@H]2C(=O)O[C@H]([C@H](C)C[C@@H]2CC[C@@H](OCCO)[C@H](OC)C2)CC(=O)[C@H](C)/C=C(\C)[C@@H](O)[C@@H](OC)C(=O)[C@H](C)C[C@H](C)/C=C/C=C/C=C/1C` [everolimus], the OS [2] is given as 19.6 months.
In the case of `NC(=O)c1cccc2cn(-c3ccc([C@@H]4CCCNC4)cc3)nc12` [niraparib], the “OS HR” value ([3]; HRP) is listed as 0.93 and the “OS HR” value ([3]; overall) is listed as 1.01.
For `CNCc1ccc(-c2[nH]c3cc(F)cc4c3c2CCNC4=O)cc1` [rucaparib], the PFS ([4]; BRCA-wt/LOH low patients) is listed as 12.1 months and the PFS ([4]; in vivo) is listed as 20.2 months.
For Atezolizumab: PD-L1 blocking antibody, the “OS (in words)” value [5] is given as “OS benefit”, the “median OS” value [6] is given as “Median OS: 12.3 months” and the “median PFS” value [6] is given as “Median PFS: 5.2 months”. The “median OS” value ([6]; listed as atezolizumab) was 12.3 months, the “median PFS” value ([6]; listed as atezolizumab) was 5.2 months and the “OS (in words)” value [7] was “OS benefit”. The “PFS HR vs. placebo arm” value ([8]; HRP subgroup) was 0.82, the PFS ([8]; PD-L1+ patients) was 20.8 months and the “PFS HR vs. placebo arm” value ([8]; PD-L1+ patients) was 0.80. For the same molecule, the “median PFS” value ([8]; atezolizumab with carboplatin plus paclitaxel and bevacizumab) was 19.5 months and the “PFS HR vs. placebo arm” value ([8]; with carboplatin plus paclitaxel and bevacizumab) was 0.92.
For Avelumab: PD-L1 blocking antibody, the “CR, patients” value ([9]; in vivo) is given as 8/88, the “ORR, responders/patients” value ([9]; in vivo) is given as 28/88 and the ORR ([9]; regardless of PD-L1) is given as “ORR: 31.8%”. For the same molecule, the “24-month OS” value [10] was “OS: 20.1%”, the CR [10] was 4.1% and the ORR [10] was “ORR: 16.5%; CR:”. The PR [10] was 12.4%, the “median DoR” value [10] was “Median DoR: 20.5 months” and the “median OS” value [10] was “Median OS: 7.0 months”. The “median PFS” value [10] was “Median PFS: 1.6 months”, the ORR ([11]; PD-L1+) was 55.2% and the “median PFS” value ([11]; PD-L1+) was 13.8 months. For the same molecule, the “median PFS” value ([11]; overall population) was “median PFS: 13.8”, the “PFS HR vs. chemotherapy alone” value ([12]; avelumab in combination with chemotherapy) was 1.14 and the “median PFS” value ([12]; avelumab only group) was 16.8 months. For the same molecule, the “median PFS” value ([12]; combination with chemotherapy) was 18.1 months and the “PFS HR vs. chemotherapy alone” value ([12]; single agent avelumab maintenance) was 1.43.
For Cemiplimab, the ORR [13] is listed as “ORR: 16.4% vs. 6.3%”, the “median OS” value [13] is listed as “Median OS: 12.0 months” and the “median PFS: HR” value [13] is listed as 0.75, p < 0.001. The ORR ([14]; Phase 1 expansion cohorts) was 50% and the response rates ([14]; Phase 2 metastatic-disease cohort) was 47.
For “Dostarlimab-gxly: anti-PD-1 checkpoint inhibitor”, the “median PFS” value [15] is listed as “Median PFS: 30.3 months”.
In the case of Durvalumab: PD-L1 blocking antibody, the ORR ([16]; PD-L1 negative) is listed as 0% (PD-L1 negative), the ORR ([16]; PD-L1 negative, listed as durvalumab) is listed as “none” and the ORR ([16]; PD-L1 positive) is listed as “patients), 46.4%”. For the same molecule, the ORR ([16]; PD-L1 positive, listed as durvalumab) was 46.4%, the ORR ([16]; all patients) was “ORR: 31% (all” and the ORR ([16]; all patients, listed as durvalumab) was 31%.
For “Nivolumab: fully humanized IgG4 antibody targeting PD-1”, the response rate (metastatic melanoma) is listed as 40%, the response rate [17] is listed as 32% and the “12-month RFS” value [18] is listed as 70.5%. The ORR [19] was 19-20%, the “median OS” value [19] was 9.2-12.2 months and the “median PFS” value [19] was 2.3-3.5 months. For the same molecule, the “24-months OS rate” value ([20]; in vivo) was 17.9%, the “median OS” value ([20]; in vivo) was 4.7 months and the response rate ([20]; progressed on platinum and at least one other line) was 11.6%. For the same molecule, the OS [2] was 25.0 months, the OS [21] was 7.5 months and the “6-months OS” value [22] was 6-months OS: 78%. The “6-months PFS” value [22] was 6-months PFS: 16%;, the “median duration of SD” value [22] was “SD: 5.7 months” and the ORR [23] was “ORR: 26.3%”. The “median OS” value [23] was “Median OS: 21.9 months”, the ORR (MSI-H/dMMR tumors) was 31% and the “response (in words)” value [24] was “durable partial response”.
For “Pembrolizumab: fully humanized IgG4 antibody targeting PD-1”, the “24-months OS” value [25] is listed as 58%, the “24-months PFS” value [25] is listed as 33% and the OS [1] is listed as 10.4 months. The “6-months OS” value [26] was 80.2% vs. 72.4%;, the ORR [26] was “ORR: 44.8% vs. 27.8%” and the “median PFS” value [26] was “Median PFS: 10.3 months”. The “6-months OS” value ([26]; listed as pembrolizumab) was 80.2%, the ORR ([26]; listed as pembrolizumab) was 44.8% and the “median PFS” value ([26]; listed as pembrolizumab) was 10.3 months. For the same molecule, the “PFS HR” value [27] was “(HR: 0.53; p = 0.0049)”, the “median PFS” value [27] was “Median PFS: 19.0 months” and the “median PFS” value ([27]; listed as pembrolizumab) was 19 months. The “response rate, PFS and OS vs. chemotherapy (in words)” value (NSCLC) was “consistent response rate, PFS and OS advantage”, the OS [28] was 12.3 months and the complete response [29] was 22%. The “median duration of response” value [29] was 11 months, the response rate [29] was 69% and the complete response rate [30] was 13%. The response rate [30] was 45%, the “OS benefit compared to chemotherapy” value ([31]; in vivo) was 3 months and the “median OS” value [31] was “Median OS: 10.3 months”. For the same molecule, the “median OS” value ([31]; listed as pembrolizumab) was 10.3 months, the ORR [32] was “ORR: 38%” and the ORR ([32]; listed as pembrolizumab) was 38%. The “ORR, responders/patients” value ([33]; 90 patients with advanced endometrial cancer) was 43/90, the “ORR, responders/patients” value ([33]; 98 patients with advanced cervical cancer) was 12/98 and the ORR ([33]; MSI-H or dMMR solid tumors) was “studies: ORRs ~40%”. The ORR ([33]; MSI-H or dMMR solid tumors, listed as pembrolizumab) was about 40%, the ORR ([33]; TMB-H patients (Keynote-158)) was 29% and the ORR ([33]; TMB-low patients (Keynote-158)) was 6%. For the same molecule, the “median DOR” value [34] was 18 vs. 10.4 months, the “median PFS” value [34] was “Median PFS: 10.4 months” and the responding tumors (metastatic NSCLC; PD-L1 negative tumors) was 15%. The response rate (metastatic NSCLC; PD-L1 positivity) was 45%, the “ORR across tumor types” value [35] was 34% and the “complete response, patients” value [35] was 10%.
For bevacizumab: VEGF inhibitor, the survival (ovarian cancer; BRCA-m and HRD pattern disease) is listed as 62.6 months, the survival (ovarian cancer; patients with HRP tumors) is listed as 43.4 months and the “patients developing Grade 3/4 product related adverse events” value [36] is listed as “over 65%”.
In the case of “ipilimumab: FDA approved CTLA-4 inhibitor”, the “OS vs. gp100 alone (in words)” value [37] is listed as “OS advantage”, the “median PFS” value [38] is listed as 4.4 months and the “12-month RFS” value [18] is listed as 60.8%. For the same molecule, the “24-months OS” value [25] was 45%, the “24-months PFS” value [25] was 13% and the “1-year OS” value [25] was 58.2%. For the same molecule, the “PFS (1-year PFS in Table 3)” value [25] was 26.5%, the “1-year OS” value ([25]; listed as Ipilimumab) was “(vs. 58.2%;” and the “PFS (1-year PFS in Table 3)” value ([25]; listed as Ipilimumab) was 26.5%; p < 0.001);.
